The source of these data is PMC4928072, “Dietary apigenin potentiates the inhibitory effect of interferon-α on cancer cell viability through inhibition of 26S proteasome-mediated interferon receptor degradation” (Food & Nutrition Research, 2016).

pIC50: −log10 of the molar value.

By pIC50 is commonly meant the negative decadic logarithm of the IC50, by convention in mol/L.

Holding throughout (assay type): biochemical
In assay [1] the target is T1, 26S proteasome, β1 subunit (caspase-like activity) (Homo sapiens, UniProt P28072).
T1 construct: gene PSMB6; purified human 26S proteasome; with other subunits of the 26S proteasome
The experiment in a line: peptidase assay of purified human 26S proteasome with Z-Nle-Pro-Nle-Asp-aminoluciferin.

Assay [2] deals with T2, 26S proteasome, β2 subunit (trypsin-like activity) (Homo sapiens, UniProt Q99436).
T2 construct: gene PSMB7; purified human 26S proteasome; with other subunits of the 26S proteasome
T2 sequence (Q99436 44-277): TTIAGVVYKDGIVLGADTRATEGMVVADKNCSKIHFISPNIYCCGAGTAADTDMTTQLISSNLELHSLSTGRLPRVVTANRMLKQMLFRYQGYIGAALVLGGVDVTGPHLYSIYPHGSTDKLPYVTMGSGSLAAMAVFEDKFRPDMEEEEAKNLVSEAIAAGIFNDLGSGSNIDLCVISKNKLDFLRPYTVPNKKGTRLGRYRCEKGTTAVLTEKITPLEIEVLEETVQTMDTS
In words: fluorogenic peptidase assay of purified human 26S proteasome with Ac-Arg-Leu-Arg-AMC.

In assay [3] the target is T3, 26S proteasome, β5 subunit (chymotrypsin-like activity) (Homo sapiens, UniProt P28074).
T3 construct: gene PSMB5; purified human 26S proteasome; with other subunits of the 26S proteasome
T3 sequence (P28074 60-263): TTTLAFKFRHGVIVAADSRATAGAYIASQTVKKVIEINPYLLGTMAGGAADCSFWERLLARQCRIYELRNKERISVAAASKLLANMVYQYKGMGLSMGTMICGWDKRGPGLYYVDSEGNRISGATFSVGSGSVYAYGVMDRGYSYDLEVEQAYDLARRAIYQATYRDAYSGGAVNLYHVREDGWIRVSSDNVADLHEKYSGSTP
The experiment in a line: fluorogenic peptidase assay of purified human 26S proteasome with Suc-Leu-Leu-Val-Tyr-AMC.

T1 sequence (P28072 35-239): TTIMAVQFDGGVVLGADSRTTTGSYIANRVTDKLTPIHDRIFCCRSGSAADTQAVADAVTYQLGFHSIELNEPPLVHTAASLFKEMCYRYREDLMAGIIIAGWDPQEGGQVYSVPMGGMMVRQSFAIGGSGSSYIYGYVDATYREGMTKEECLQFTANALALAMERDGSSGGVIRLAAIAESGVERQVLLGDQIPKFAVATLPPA

For `O=c1cc(-c2ccc(O)cc2)oc2cc(O)cc(O)c12` [apigenin], the values for the pIC50 in assay [1], in assay [2] and in assay [3] were 5.82, 4.70 and 4.94, respectively.
